Patent US20080214621A1, “Cycloalkyl Lactam Derivatives As Inhibitors Of 11-Beta-Hydroxysteroid Dehydrogenase 1” (priority 2004, published 2008)

molecular target: Human 11β-HSD type 1 (Homo sapiens, UniProt P28845); assay: 11β-HSD type 1 enzyme assay (NADPH production by fluorescence); type: biochemical; settings: recombinant human 11β-HSD type 1 enzyme, cortisol/NADP substrate, three hour incubation at room temperature
Protocol: Human 11β-HSD type 1 activity is measured by assaying NADPH production by fluorescence assay. Solid compounds are dissolved in DMSO to a concentration of 10 mM. Twenty microliters of each are then transferred to a column of a 96-well polypropylene Nunc plate where they are further diluted 50-fold followed by subsequent two-fold titration, ten times across the plate with additional DMSO using a Tecan Genesis 200 automated system. Plates are then transferred to a Tecan Freedom 200 system with an attached Tecan Temo 96-well head and an Ultra 384 plate reader. Reagents are supplied in 96-well polypropylene Nunc plates and are dispensed individually into black 96-well Molecular Devices High Efficiency assay plates (40 μL/well capacity) in the following fashion: 9 μL/well of substrate (2.22 mM NADP, 55.5 μM Cortisol, 10 mM Tris, 0.25% Prionex, 0.1% Triton X100), 3 μL/well of water to compound wells or 3 μL to control and standard wells, 6 μL/well recombinant human 11β-HSD type 1 enzyme, 2 μL/well of compound dilutions. […] Final DMSO concentration is 0.5% for all compounds, controls and standards. Plates are then placed on a shaker by the robotic arm of the Tecan for 15 seconds before being covered and stacked for a three hour incubation period at room temperature. Upon completion of this incubation, the Tecan robotic arm removes each plate individually from the stacker and places them in position for addition of 5 μL/well of a 250 μM carbenoxolone solution to stop the enzymatic reaction. Plates are then shaken once more for 15 seconds then placed into an Ultra 384 microplate reader (355EX/460EM) for detection of NADPH fluorescence.

Chain of Human 11β-HSD type 1 (P28845 whole entry): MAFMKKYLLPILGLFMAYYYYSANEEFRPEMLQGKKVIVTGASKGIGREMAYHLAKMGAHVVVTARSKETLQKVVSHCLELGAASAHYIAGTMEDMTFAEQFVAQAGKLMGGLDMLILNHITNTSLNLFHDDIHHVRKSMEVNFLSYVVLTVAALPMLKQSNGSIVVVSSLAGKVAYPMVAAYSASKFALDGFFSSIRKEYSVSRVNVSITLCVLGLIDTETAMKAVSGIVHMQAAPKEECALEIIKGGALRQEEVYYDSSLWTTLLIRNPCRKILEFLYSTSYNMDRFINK

Row | Structure (SMILES) | IC50
1 | COc1ccc2cc(CC3CCN([C@H]4CC[C@@H](O)CC4)C3=O)ccc2c1 (relative stereo) [Example 8, 1-(cis-4-Hydroxy-cyclohexyl)-3-(6-methoxy-naphthalen-2-ylmethyl)-pyrrolidin-2-one] | 247 nM
2 | COc1ccc2cc(CC3CCCN([C@H]4CC[C@H](O)CC4)C3=O)ccc2c1 (stereo partly shown) [Example 34] | 353 nM
3 | COc1ccc2ccccc2c1CC1CCCN(C2CCCCC2)C1=O (stereo not shown) [Example 40, 1-Cyclohexyl-3-(2-methoxy-naphthalene-1-ylmethyl)-piperidin-2-one] | 423 nM
4 | O=C1C(Cc2ccc3cc(-c4c(Cl)cccc4Cl)ccc3c2)CCN1C1CCCCC1 (stereo not shown) [Example 44] | 344 nM

Continued by falling IC50, values first:

Row | IC50 | Structure (SMILES)
5 | 354 nM | O=C1C(Cc2ccc3ccccc3c2Br)CCN1C1CCCCC1 (stereo not shown) [Example 2, 3-(1-Bromo-naphthalen-2-ylmethyl)-1-cyclohexyl-pyrrolidin-2-one]
6 | 213 nM | COc1ccc2c(Cl)c(CC3CCN(C4CCCCC4)C3=O)ccc2c1 (stereo not shown) [Example 24, 3-((1-chloro-6-methoxynaphthalen-2-yl)methyl)-1-cyclohexylpyrrolidin-2-one]
7 | 134 nM | COc1ccc2cc(CC3CCN(C4CCCCC4)C3=O)ccc2c1 (stereo not shown) [Example 4, 1-Cyclohexyl-3-(6-methoxy-naphthalen-2-ylmethyl)-pyrrolidin-2-one]
